# Patent US20240287108A1, “nSMASE2 INHIBITOR PRODRUGS WITH ENHANCED ORAL AND BRAIN EXPOSURES” (The Johns Hopkins University, priority 2021, published 2024)
# Assays:
# [1] = in vitro stability in CES1−/− mouse plasma; type: in vitro ADME; details: 10 μM
# Protocol: All synthesized prodrugs were next screened for in vitro stability in carboxylesterase 1 knockout (CES1^−/−) mouse plasma, as well as CES1^−/− mouse brain and liver homogenates (Table 2-1). We have previously reported that CES1^−/− mouse model recapitulates human prodrug metabolism. Tenora et al., 2019.
# (§1) Zimmermann et al., 2018. For the tissue homogenates, washed tissues were diluted 10-fold in 0.1 M potassium phosphate buffer and homogenized using a probe sonicator. To evaluate the stability of the intact prodrug over time, each of the crude homogenates and plasma were aliquoted to 1 mL and then spiked with a final assay concentration of 10 μM of each prodrug followed by incubation in an orbital shaker at 37° C. for 1 h (in triplicate). Sample from each incubation at predetermined time points (0 min, and 1 h) was quenched with three volumes of acetonitrile containing the internal standard (IS; losartan: 0.5 μm). Samples were vortex-mixed for 30 secs and centrifuged at 10,000×g for 10 min at 4° C. Disappearance of intact prodrugs from these samples were performed on a Dionex ultra-high-performance LC system coupled with Q Exactive Focus orbitrap mass spectrometer (Thermo Fisher Scientific Inc., Waltham MA). The separation of analytes was achieved using the Agilent Eclipse Plus column (100×2.1 mm i.d.; maintained at 35° C.) packed with a 1.8 μm C18 stationary phase. The mobile phase consisted of 0.1% formic acid in water and 0.1% formic acid in acetonitrile. Pumps were operated at a flow rate of 0.4 mL/min for 9 min using gradient elution. The mass spectrometer controlled by Xcalibur software 4.0.27.13 (Thermo Scientific) was operated with a heated electrospray ionization (HESI) ion source in positive ionization mode. Quantification of the prodrugs were performed in the full-scan mode (from m/z 50 to 1600) by comparing t=0 samples with t=60 min samples.
# [2] = single time-point (2 h) oral pharmacokinetic screening in mice; type: in vivo, mouse; details: single time point PK, oral 10 mg/kg DPTIP equivalent
# Protocol: (§2) All PK studies in mice were conducted according to protocols approved by the Animal Care and Use Committee at Johns Hopkins University. Male CD-1 mice between 25 and 30 g were obtained from Harlan and maintained on a 12 h light-dark cycle with ad libitum access to food and water. […] All of the formulations were freshly prepared prior to the dosing. The mice were sacrificed at specified time points (either 2 h or 0.25, 0.5, 1, 2, 4, 6, and 8 h) post drug administration. For the collection of plasma and brain tissue, animals were euthanized with CO2, and blood samples were collected in heparinized microtubes by cardiac puncture. Brains were dissected and immediately flash frozen (−80° C.) Blood samples were spun at 2000 g for 15 min, and plasma was removed and stored at −80° C. until LC-MS/MS analysis. Prior to extraction, frozen samples were thawed on ice.
# Brain tissues were diluted 1:5 w/v with acetonitrile containing losartan (0.5 μm) and homogenized, followed by vortex-mixing and centrifugation at 10,000 g for 10 min at 4° C. […] Plasma concentrations (nmol/ml) as well as brain tissue concentrations (nmol/g) were determined and plots of mean plasma concentration versus time were constructed. Non-compartmental analysis modules in Phoenix WinNonlin version 7.0 (Certara USA, Inc., Princeton, NJ) were used to quantify exposures (AUC0-t).
# [3] = in vivo pharmacokinetic studies in mice (Example 1); set-up: species or system mouse; details: for AUC / MRT / half-life / Cmax: 10 mg/kg
# Protocol: 1.2.1 In vitro metabolic stability assessment. In vitro metabolic stability assessment was performed using mouse plasma, and liver homogenates. For the liver homogenates, washed tissues were diluted 10-fold in 0.1 M potassium phosphate buffer and homogenized using a probe sonicator. To evaluate the stability of the intact prodrug over time, each of the tissue matrix were aliquoted to 1 mL and then spiked with 10 μM of corresponding prodrugs followed by incubation in an orbital shaker at 37° C. for 1 h (in triplicate). Sample from each incubation at predetermined time points (0 min, and 1 h) was quenched with three volumes of acetonitrile containing the internal standard (IS: losartan: 0.5 μm). Samples were vortex-mixed for 30 secs and centrifuged at 10,000 RPM for 10 min at 4° C. Disappearance of the intact compound was measured using liquid chromatography tandem mass spectrometry (LC-MS/MS). 1.2.2 In vivo pharmacokinetic studies in mice. Male CD-1 mice (n=3) were used to study the pharmacokinetic profiles of representive prodrug compounds. […] Blood and brain were collected after sacrificing the mice at predetermined time points. Plasma was harvested from blood by centrifugation at 3,000 RPM for 15 min and stored at −80° C. Brain tissues were harvested following blood collection and immediately snap frozen in liquid nitrogen and stored at −80° C. until LC-MS/MS analysis. […] Brain tissues were diluted 1:5 w/v with acetonitrile containing losartan (0.5 μm) and homogenized, followed by vortex-mixing and centrifugation at 10,000 RPM for 10 min at 4° C. A 50 μL aliquot of the supernatant was diluted with 50 μL of water and transferred to 250 μL polypropylene autosampler vials sealed with teflon caps. Then, 2 μL of the sample was injected into the LC-MS/MS system for analysis.
# [4] = time-dependent oral pharmacokinetics in mice; type: in vivo, mouse
# Protocol: As described earlier, we identified P1 and P18 as the most promising candidates for time dependent PK.
# as §2
# Brain tissues were diluted 1:5 w/v with acetonitrile containing losartan (0.5 μm) and homogenized, followed by vortex-mixing and centrifugation at 10,000 g for 10 min at 4° C. A 50 μL aliquot of the supernatant were diluted with 50 uL of water and transferred to 250 μL polypropylene autosampler vials sealed with teflon caps. Then, 2 μL of the sample were injected into the LC/MS/MS system for analysis. Chromatographic analysis was performed using an Accela ultra-high-performance system consisting of an analytical pump and an autosampler coupled with a TSQ Vantage mass spectrometer. […] The mobile phase consisted of 0.1% formic acid in acetonitrile and 0.1% formic acid in water with gradient elution were used. […] Plasma concentrations (nmol/ml) as well as brain tissue concentrations (nmol/g) were determined and plots of mean plasma concentration versus time were constructed. Non-compartmental analysis modules in Phoenix WinNonlin version 7.0 (Certara USA, Inc., Princeton, NJ) were used to quantify exposures (AUC0-t).
# [5] = in vitro stability in CES1−/− mouse liver homogenates; type: in vitro ADME; details: CES1−/− mouse liver homogenate, 10 μM, 37° C.
# Protocol: (§3) All synthesized prodrugs were next screened for in vitro stability in carboxylesterase 1 knockout (CES1^−/−) mouse plasma, as well as CES1^−/− mouse brain and liver homogenates (Table 2-1). We have previously reported that CES1^−/− mouse model recapitulates human prodrug metabolism.
# as §1, with “For” for “Zimmermann et al., 2018. For”, “The separation of analytes was achieved using the Agilent Eclipse Plus column (100×2.1 mm i.d.; maintained at 35° C.) packed with a 1.8 μm C18 stationary phase.” left out
# [6] = in vitro metabolic stability in mouse plasma (Example 1); type: in vitro ADME; details: 10 μM, 37° C.
# Protocol: 1.2.1 In vitro metabolic stability assessment. In vitro metabolic stability assessment was performed using mouse plasma, and liver homogenates. For the liver homogenates, washed tissues were diluted 10-fold in 0.1 M potassium phosphate buffer and homogenized using a probe sonicator. To evaluate the stability of the intact prodrug over time, each of the tissue matrix were aliquoted to 1 mL and then spiked with 10 μM of corresponding prodrugs followed by incubation in an orbital shaker at 37° C. for 1 h (in triplicate). Sample from each incubation at predetermined time points (0 min, and 1 h) was quenched with three volumes of acetonitrile containing the internal standard (IS: losartan: 0.5 μm). Samples were vortex-mixed for 30 secs and centrifuged at 10,000 RPM for 10 min at 4° C. Disappearance of the intact compound was measured using liquid chromatography tandem mass spectrometry (LC-MS/MS). 1.2.2 In vivo pharmacokinetic studies in mice. Male CD-1 mice (n=3) were used to study the pharmacokinetic profiles of representive prodrug compounds. […] Blood and brain were collected after sacrificing the mice at predetermined time points. Plasma was harvested from blood by centrifugation at 3,000 RPM for 15 min and stored at −80° C. Brain tissues were harvested following blood collection and immediately snap frozen in liquid nitrogen and stored at −80° C. until LC-MS/MS analysis. […]
# [7] = in vitro stability in CES1−/− mouse brain homogenates; type: in vitro ADME; details: CES1−/− mouse brain homogenate, 10 μM, 37° C.
# Protocol: as §3
# as §1, with “For” for “Zimmermann et al., 2018. For”, “The separation of analytes was achieved using the Agilent Eclipse Plus column (100×2.1 mm i.d.; maintained at 35° C.) packed with a 1.8 μm C18 stationary phase.” left out
# [8] = previously reported pharmacokinetics; cited from earlier work
# [9] = dog plasma pharmacokinetics; type: in vivo; details: IV 2 mg/kg
# [10] = test system: EV release; details: previously reported; in vitro (b234 also in vivo when delivered systemically); cited from earlier work
# [11] = male, CD-1, mouse, in vivo, po, intact prodrug, brain, mice, 10 mg/kg eqv
# [12] = male, CD-1, mouse, in vivo, po, intact prodrug, plasma, mice, 10 mg/kg eqv
smiles,measurement,setting,value
"COc1cc(-c2nc(-c3ccccc3)c(-c3cccs3)[nH]2)cc(OC)c1OC(=O)N1CCC(N2CCCCC2)CC1 [Compound P1, 2,6-Dimethoxy-4-(4-phenyl-5-(thiophen-2-yl)-1H-imidazol-2-yl)phenyl[1,4′-bipiperidine]-1′-carboxylate]","Stability in mouse (% remaining at 1h) Mean + Std Error, Plasma","[1]; CES1−/− mouse plasma, 37° C.",90 ± 2%
same,improvement of brain and plasma levels of DPTIP and/or its brain penetration index compared with DPTIP,[2],highest improvement
same,AUC,[3]; [11],0.477 µM·h
same,MRT,[3]; [11],2.12 h
same,half-life,[3]; [11],4.37 h
same,Cmax,"[3]; male, CD-1, mouse, in vivo, po, intact prodrug, brain, mice, 10 mg/kg eqv, read-out: Cmax",106 ± 11.6 nM
same,AUC,[3]; [12],0.805 µM·h
same,MRT,[3]; [12],3.39 h
same,half-life,[3]; [12],2.45 h
same,Cmax,"[3]; male, CD-1, mouse, in vivo, po, intact prodrug, plasma, mice, 10 mg/kg eqv, read-out: Cmax",546 ± 25.8 nM
same,Tmax,[3]; [12],1 h
same,Kp,"[3]; male, CD-1, mouse, in vivo, intact prodrug, mice, 10 mg/kg eqv, read-out: Brain:Plasma ratio",0.6
same,plasma exposure of the intact compound (AUC0-t),[4]; oral 10 mg/kg DPTIP equivalent,0.8299 µM·h
same,conversion of prodrug to DPTIP in vivo,[4]; oral 10 mg/kg DPTIP equivalent (P18: in the brain),about 40%
same,"Stability in mouse (% remaining at 1h) Mean + Std Error, Liver",[5],85 ± 3%
"COc1cc(-c2nc(-c3ccccc3)c(-c3cccs3)[nH]2)cc(OC)c1OC(=O)C1=CN(C)C=CC1 [Compound P17, 2,6-Dimethoxy-4-(4-phenyl-5-(thiophen-2-yl)-1H-imidazol-2-yl)phenyl 1-methyl-1,4-dihydropyridine-3-carboxylate]","Stability in mouse (% remaining at 1h) Mean + Std Error, Plasma","[1]; CES1−/− mouse plasma, 37° C.",52 ± 2%
same,intact prodrug remaining after 1 hour of incubation,[6],approximately 50%
same,"Stability in mouse (% remaining at 1h) Mean + Std Error, Liver",[5],22 ± 1%
"COc1cc(-c2nc(-c3cccs3)c(-c3ccccc3)[nH]2)cc(OC)c1O [DPTIP, 2,6-dimethoxy-4-(5-phenyl-4-(thiophen-2-yl)-1H-imidazol-2-yl) phenol, reference compound]","Stability in mouse (% remaining at 1h) Mean + Std Error, Plasma","[1]; CES1−/− (carboxylesterase 1 knockout), mouse, plasma",103 ± 2%
same,"Stability in mouse (% remaining at 1h) Mean + Std Error, Brain",[7],89 ± 4%
same,t1/2 (rapid clearance) of DPTIP,[8],< 0.5 h
same,Cmax,"[3]; male, CD-1, mouse, plasma, po",400 nM
same,brain levels of DPTIP,"[3]; mice, oral 10 mg/kg DPTIP equivalent",50 nM
same,AUC,[9],7.47 µM·h
same,Cmax,[9],5500 nM
same,inhibition of EV release,[10],dose-dependently inhibiting EV release in vitro and in vivo
same,"Stability in mouse (% remaining at 1h) Mean + Std Error, Liver",[5],98 ± 6%
